This note sets out measurements from the supplement of paper PMC11997997.

Experiment [1] has as its system murine bone marrow-derived macrophages. As to the kind of experiment: area under cytotoxicity dose-response curve (AUC (% cytotoxicity x dose, relative)); higher = more cytotoxic. The note with it: duration: 6 days; dose range: 0.13-80 uM, 8 points. An outline of the steps:
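Primary murine bone marrow-derived macrophages in opaque 384-well plates were exposed to an 8-point, 2.5-fold dilution series (final 80–0.13 μM) for 6 days at 37 °C in 5% CO2. Viability was read with Promega's CellTiter-Glo luminescence assay, and percent cytotoxicity was normalised to vehicle and positive control wells. Cytotoxicity is reported as the area under the dose–response curve, calculated in GraphPad Prism version 10.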

Experiment [2] relates to Mycobacterium tuberculosis CDC1551 (intracellular, in murine BMDM). As to the kind of experiment: area under intracellular growth-inhibition dose-response curve (AUC (% inhibition x dose, relative)); higher = more potent. The note with it: duration: 6 days; dose range: 0.13-80 uM, 8 points. In short, it runs like this: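 Macrophages derived from primary murine bone marrow were infected for 1 h at multiplicity of infection 1 with luciferase-expressing M. tuberculosis CDC1551, then treated for 6 days at final concentrations of 80–0.13 μM. Bright-Glo luciferin signal, normalised to a reference drug control and the lowest-concentration wells, gave the growth readout. Area under the growth-inhibition dose–response curve was then calculated in GraphPad Prism.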

In the case of `Cc1nc(SCC(=O)NCc2ccc3c(c2)OCO3)nc(C)c1C`, in experiment [1], the “area under cytotoxicity dose-response curve” value is less than 0. Moreover, in experiment [2], the “area under intracellular growth-inhibition dose-response curve” value worked out at 54.6.
Regarding `C=CCn1c(SCC(=O)NC(=O)Cc2ccccc2)nc2ccccc2c1=O`, the “area under cytotoxicity dose-response curve” value in experiment [1] was less than 0. Also, the “area under intracellular growth-inhibition dose-response curve” value in experiment [2] was determined as 158.
Regarding `CC(=O)Nc1cccc(/C(C)=N/NC(N)=S)c1`, the “area under cytotoxicity dose-response curve” value in experiment [1] is less than 0. Further, the “area under intracellular growth-inhibition dose-response curve” value in experiment [2] came to 235.
As to `CN(Cc1ccccc1)C(=O)CCc1ccccc1`, the “area under cytotoxicity dose-response curve” value in experiment [1] is less than 0. In experiment [2], the “area under intracellular growth-inhibition dose-response curve” value is 181.
With `CCOC(=O)C(CC)(CC)/C(C)=N/NC(=O)CC#N`, in experiment [1], the “area under cytotoxicity dose-response curve” value is 20. Besides, the “area under intracellular growth-inhibition dose-response curve” value in experiment [2] was determined as 19.5.
The like results for `CC(=O)Nc1sc(N/N=C/c2ccc(N(C)C)cc2)nc1-c1ccc(C)cc1` were, in that order, 6.8 and 263.
Turning to `O=P1(c2ccccc2)Nc2ccccc2N1c1ccccc1` (stereo not drawn), the “area under cytotoxicity dose-response curve” value in experiment [1] amounted to 8.15. Further, the “area under intracellular growth-inhibition dose-response curve” value in experiment [2] amounted to 264.
In the same order, the values of `CCC(C)c1ccc(NC(=S)Nc2ccc(OC)cc2)cc1` (stereo not drawn) are 46.7 and 201.
The like results for `CCN1C(=O)C(O)(C2COC(C)(C)CC2=O)c2ccccc21` (stereo not drawn) were, in that order, 41 and 31.5.
In the case of `CC[N+](CC)(CC)CCCCOc1ccc2c(c1)C(=O)c1cc(OCCCC[N+](CC)(CC)CC)ccc1-2.[I-]`, the “area under cytotoxicity dose-response curve” value in experiment [1] turned out to be 56.8. Moreover, the “area under intracellular growth-inhibition dose-response curve” value in experiment [2] came to 92.4.
The like results for `CCCCC(=O)NCc1ccccc1Cl` were, in that order, 22.2 and 262.
`CCN(CC)S(=O)(=O)c1ccc2c(c1)c(=O)c(C(=O)NCCc1ccccc1)cn2C`: in experiment [1], the “area under cytotoxicity dose-response curve” value turned out to be 22.5. Besides, the “area under intracellular growth-inhibition dose-response curve” value in experiment [2] amounted to 157.
Turning to `COc1ccc(CN(C)C(=O)c2cccc(S(=O)(=O)N3CCCc4ccccc43)c2)c(OC)c1OC`, the “area under cytotoxicity dose-response curve” value in experiment [1] is 16.4. The “area under intracellular growth-inhibition dose-response curve” value in experiment [2] was determined as 144.
In the case of `O=[N+]([O-])c1[c][c]c(Sc2[c][c][c][c][n+]2[O-])c2nonc12`, the “area under cytotoxicity dose-response curve” value in experiment [1] stood at 119. Besides, in experiment [2], the “area under intracellular growth-inhibition dose-response curve” value was 48.7.
For the compound `COc1ccc2nc(C)cc(N/N=C/c3ccccc3)c2c1`, the “area under cytotoxicity dose-response curve” value in experiment [1] amounted to 97.6. The “area under intracellular growth-inhibition dose-response curve” value in experiment [2] was 136.
The like results for `CN(C)[C@@H]1C(=O)C(C(N)=O)=C(O)[C@@]2(O)C(O)=C3C(=O)c4c(O)cccc4[C@@](C)(O)C3C[C@@H]12.Cl` (stereo partly drawn) were, in that order, 65.9 and 232.
In the case of `COc1ccc(NC(=O)Cn2c(C)cc(=O)c3ccccc32)cc1`, the “area under cytotoxicity dose-response curve” value in experiment [1] was less than 0. The “area under intracellular growth-inhibition dose-response curve” value in experiment [2] is 182.
In the same order, the values of `CC(C)(C)C(=O)/C(=C/c1ccncc1)n1cncn1` are 106 and 32.
For `O=C(Nc1ccc(Br)cc1)NC1CCCCCCC1`, in experiment [1], the “area under cytotoxicity dose-response curve” value is 26.1. The “area under intracellular growth-inhibition dose-response curve” value in experiment [2] is 263.
For `O=C(NCC1CCCCC1)c1ccc([N+](=O)[O-])cc1`, in experiment [1], the “area under cytotoxicity dose-response curve” value came out at 77.6. In experiment [2], the “area under intracellular growth-inhibition dose-response curve” value turned out to be 239.
For `COc1cccc2c1C(=O)c1c(O)c3c(c(O)c1C2=O)C[C@@](O)(C(=O)CO)C[C@@H]3O[C@H]1C[C@H](N)[C@H](O)[C@H](C)O1.Cl`, in experiment [1], the “area under cytotoxicity dose-response curve” value worked out at 147. Further, the “area under intracellular growth-inhibition dose-response curve” value in experiment [2] is 117.
With `CSc1nsc(SCC(=O)N2CCCCC2)n1`, the “area under cytotoxicity dose-response curve” value in experiment [1] was found to be 59. Further, the “area under intracellular growth-inhibition dose-response curve” value in experiment [2] turned out to be 93.5.
On to `CC(C)CCNC(=O)c1csc2c1CCCCC2`, for which the “area under cytotoxicity dose-response curve” value in experiment [1] stood at 42.8. Further, the “area under intracellular growth-inhibition dose-response curve” value in experiment [2] worked out at 250.
On to `Cc1ccc(Cc2c(C)c(C#N)c3nc4ccccc4n3c2O)cc1`, for which the “area under cytotoxicity dose-response curve” value in experiment [1] is 75.7. Moreover, the “area under intracellular growth-inhibition dose-response curve” value in experiment [2] was 240.
As to `CC(C)(C)c1nnc(NC(=S)Nc2ccccc2)s1`, the “area under cytotoxicity dose-response curve” value in experiment [1] is less than 0. For the same compound, the “area under intracellular growth-inhibition dose-response curve” value in experiment [2] is 258.
For `Cc1cc(Br)cnc1NC(=S)Nc1ccc(F)cc1F`, in experiment [1], the “area under cytotoxicity dose-response curve” value was found to be 33.7. For the same compound, the “area under intracellular growth-inhibition dose-response curve” value in experiment [2] was found to be 247.
Regarding `Cc1cc(C(=O)NCc2cccs2)cs1`, the “area under cytotoxicity dose-response curve” value in experiment [1] stood at 9.86. The “area under intracellular growth-inhibition dose-response curve” value in experiment [2] was 25.9.
On to `O=C(NCc1ccccc1F)c1ccc2c(c1)OCO2`, for which the “area under cytotoxicity dose-response curve” value in experiment [1] came to 87.2. The “area under intracellular growth-inhibition dose-response curve” value in experiment [2] came out at 79.5.
Regarding `O=C(COC(=O)CCCOc1ccc(Cl)cc1Cl)NCc1ccc(F)cc1`, the “area under cytotoxicity dose-response curve” value in experiment [1] is 40.6. The “area under intracellular growth-inhibition dose-response curve” value in experiment [2] was 9.47.
As for `CC[N+](C)(CC)CCCCOc1ccc2c(c1)C(=O)c1cc(OCCCC[N+](C)(CC)CC)ccc1-2.[I-]`, in experiment [1], the “area under cytotoxicity dose-response curve” value was determined as 51.3. Besides, the “area under intracellular growth-inhibition dose-response curve” value in experiment [2] came out at 175.
As for `Cc1ccc(C(=O)N2CCCC2)cc1Br`, in experiment [1], the “area under cytotoxicity dose-response curve” value was determined as 8.65. Moreover, the “area under intracellular growth-inhibition dose-response curve” value in experiment [2] is 166.
Regarding `CCOc1c2c(nc3ccc(Cl)cc13)CCC2`, the “area under cytotoxicity dose-response curve” value in experiment [1] is 57.1. In experiment [2], the “area under intracellular growth-inhibition dose-response curve” value worked out at 157.
The like results for `Cc1cc(/C=N/NC(N)=S)c(C)n1-c1ccc(Cl)cc1` were, in that order, 44.8 and 220.
On to `CCCc1ccc(C(=O)CCC(=O)NNC(=O)c2ccncc2)cc1`, for which the “area under cytotoxicity dose-response curve” value in experiment [1] was found to be 9.69. Also, the “area under intracellular growth-inhibition dose-response curve” value in experiment [2] stood at 270.
As to `Cc1cccc(/C=N/NC(=O)c2ccncc2)n1`, the “area under cytotoxicity dose-response curve” value in experiment [1] is 14. The “area under intracellular growth-inhibition dose-response curve” value in experiment [2] is 269.
As for `CCOC(=O)c1c(C)nc2ccc(C)cn12`, the “area under cytotoxicity dose-response curve” value in experiment [1] turned out to be 24.3. Besides, the “area under intracellular growth-inhibition dose-response curve” value in experiment [2] worked out at 155.
For the compound `COc1cc(/C=N/NC(=O)c2ccncc2)ccc1OC(C)=O`, the “area under cytotoxicity dose-response curve” value in experiment [1] stood at 37.6. For the same compound, the “area under intracellular growth-inhibition dose-response curve” value in experiment [2] is 273.
In the case of `CCCCCc1ccc(OCCCC[n+]2ccccc2)c(CCCCC)c1.[Cl-]`, in experiment [1], the “area under cytotoxicity dose-response curve” value worked out at 79.3. Besides, the “area under intracellular growth-inhibition dose-response curve” value in experiment [2] was 16.
Consider `COc1ccc(Cl)cc1NC(=O)C(C)OC(=O)Cn1cc(C(F)(F)F)ccc1=O` (stereo not drawn), for which the “area under cytotoxicity dose-response curve” value in experiment [1] turned out to be 119. Also, in experiment [2], the “area under intracellular growth-inhibition dose-response curve” value turned out to be 24.1.
In the case of `Nc1c2c(nc3ccn(Cc4ccccc4)c(=O)c13)CCC2`, the “area under cytotoxicity dose-response curve” value in experiment [1] is 39.1. Moreover, the “area under intracellular growth-inhibition dose-response curve” value in experiment [2] came out at 196.
In the same order, the values of `CC1CCCN(C(=O)C2CCC(CNc3c(N4CCCCC4)c(=O)c3=O)CC2)C1` (stereo not drawn) are 8.75 and 91.7.
The like results for `Cc1nn(CC(=O)NC2C(=O)N3C(C(=O)O)=C(CSc4nnnn4C)CSC23)cc1Br` (stereo not drawn) were, in that order, 30.6 and 236.
Take `O=C(COc1ccc(Cl)cc1)NNC(=O)c1ccncc1`: in experiment [1], the “area under cytotoxicity dose-response curve” value was found to be 9.09. The “area under intracellular growth-inhibition dose-response curve” value in experiment [2] worked out at 274.
As to `CN(C)c1nc(-c2ccccn2)nnc1-c1ccccc1`, the “area under cytotoxicity dose-response curve” value in experiment [1] is 120. Moreover, in experiment [2], the “area under intracellular growth-inhibition dose-response curve” value came out at 149.
With `CC1CCC/C(=N\NC(=O)c2ccncc2)C1` (stereo not drawn), in experiment [1], the “area under cytotoxicity dose-response curve” value stood at 70.8. Further, in experiment [2], the “area under intracellular growth-inhibition dose-response curve” value came to 186.
With `COc1ccc(CCNC(=O)c2c(C)nc3ccccn23)cc1`, the “area under cytotoxicity dose-response curve” value in experiment [1] is less than 0. In addition, the “area under intracellular growth-inhibition dose-response curve” value in experiment [2] was found to be 198.
On to `COc1ccc(-c2ncn(CCC#N)c2[N+](=O)[O-])cc1`, for which the “area under cytotoxicity dose-response curve” value in experiment [1] came out at 8.24. For the same compound, the “area under intracellular growth-inhibition dose-response curve” value in experiment [2] came to 119.
`CSc1ncccc1C(=O)OCC(=O)c1ccc[nH]1`: in experiment [1], the “area under cytotoxicity dose-response curve” value is less than 0. Moreover, the “area under intracellular growth-inhibition dose-response curve” value in experiment [2] was determined as 159.
For `CN(C)c1ccc(/C=N/CC2(O)CCOC(C)(C)C2)cc1` (stereo not drawn), the “area under cytotoxicity dose-response curve” value in experiment [1] stood at 103. Besides, in experiment [2], the “area under intracellular growth-inhibition dose-response curve” value stood at 1.75.
With `O=C(NC1CCCCCC1)c1ccc(Br)o1`, the “area under cytotoxicity dose-response curve” value in experiment [1] was found to be 27.7. The “area under intracellular growth-inhibition dose-response curve” value in experiment [2] is 231.
`CC(=O)N1CCN(S(=O)(=O)c2cccc(C(=O)Nc3ccccc3N3CCCCC3)c2)CC1`: the “area under cytotoxicity dose-response curve” value in experiment [1] was found to be 21.9. The “area under intracellular growth-inhibition dose-response curve” value in experiment [2] is less than 0.
As to `Cc1c(C(=O)N(C)C)sc(NC(=O)c2cccc([N+](=O)[O-])c2)c1C#N`, in experiment [1], the “area under cytotoxicity dose-response curve” value turned out to be 51.5. The “area under intracellular growth-inhibition dose-response curve” value in experiment [2] stood at 13.8.
Turning to `O=C(NCC1CCCCC1)c1ccc(Br)o1`, the “area under cytotoxicity dose-response curve” value in experiment [1] was less than 0. The “area under intracellular growth-inhibition dose-response curve” value in experiment [2] is 274.
Regarding `Cc1cccc(-n2c(C)cc(/C=N/NC(N)=S)c2C)c1`, the “area under cytotoxicity dose-response curve” value in experiment [1] was less than 0. The “area under intracellular growth-inhibition dose-response curve” value in experiment [2] is 235.
